The values below come from patent publication US20050080113A1, “Medicinal compositions” (priority 2001, published 2005).

Usually melting point stands for the temperature, or range, at which the solid turns liquid. The compound `CCNC(=O)Nc1cc(-c2sc(CC)nc2-c2cccc(C)c2)ccn1` [H 108, N-ethyl-N′-[4 [2 ethyl-4 (3 methylphenyl)-1,3 thiazol-5 yl]-2-pyridyl]urea] returned a melting point of 160 to 162 °C.

As to `CCNC(=O)Nc1cc(-c2sc(CC)nc2-c2cccc(Cl)c2)ccn1` [H 109, N-[4 [4 (3 chlorophenyl)-2-ethyl-1,3 thiazol-5 yl]-2 pyridyl]-N′-ethyl-urea], the melting point fell in the range of 177 to 180 °C.

In turn, `CC(=O)Nc1cc(-c2sc(C(C)OC(=O)c3ccccc3)nc2-c2cccc(C)c2)ccn1` (stereo not drawn) [H 110, 1 [5 (2 acetylamino-4-pyridyl)-4 (3 methylphenyl)-1,3 thiazol-2 yl]ethyl benzoate] showed a melting point of 110 to 113 °C.

Consider `CC(=O)Nc1cc(-c2sc(C(C)O)nc2-c2cccc(C)c2)ccn1` (stereo not drawn) [H 111-1, N-[4 [2 (1 hydroxyethyl)-4-(3 methylphenyl)-1,3 thiazol-5 yl]-2 pyridyl]acetamide], for which the melting point fell in the range of 99 to 102 °C.

Compound `CC(=O)Nc1cc(-c2sc(C(C)O)nc2-c2cccc(Cl)c2)ccn1` (stereo not drawn) [H 111-2, N-[4 [4 (3 chlorophenyl)-2-(1 hydroxyethyl)-1,3 thiazol-5 yl]-2 pyridyl]acetamide] showed a melting point of 142 to 145 °C.

In the case of `CC(=O)Nc1cc(-c2sc(C(C)=O)nc2-c2cccc(Cl)c2)ccn1` [H 112, N-[4 [2 acetyl-4 (3-chlorophenyl)-1,3 thiazol-5 yl]-2 pyridyl]acetamide], the melting point fell in the range of 180 to 183 °C.

`CSCc1nc(-c2cccc(C)c2)c(-c2ccnc(N)c2)s1` [H 113-1, 4 [4 (3 methylphenyl)-2-(methylthio)methyl-1,3 thiazol-5 yl]-2 pyridylamine] came in with a melting point of 113 to 114 °C.

As for `Cc1cccc(-c2nc(C(C)(F)F)sc2-c2ccnc(N)c2)c1` [H 113-2, 4 [2 (1,1 difluoroethyl)-4 (3 methylphenyl)-1,3 thiazol-5 yl]-2 pyridylamine], the melting point lay in the range of 140 to 141 °C.

Compound `CCc1nc(-c2cccc(C)c2)c(-c2ccnc(NC(=O)c3ccsc3)c2)s1` [L 39-1, N-[4 [2 ethyl-4 (3-methylphenyl)-1,3 thiazol-5 yl]-2 pyridyl]-3-thiophenecarboxamide] returned a melting point of 99 to 101 °C.

`CCc1nc(-c2cccc(C)c2)c(-c2ccnc(NC(=O)c3ccc(OC)cc3)c2)s1` [L 39-2, N-[4 [2 ethyl-4 (3-methylphenyl)-1,3 thiazol-5 yl]-2 pyridyl]-4 methoxybenzamide] came in with a melting point of 124 to 125 °C.

In the case of `CCc1nc(-c2cccc(C)c2)c(-c2ccnc(NC(=O)c3ccc(C)cc3)c2)s1` [L 39-3, N-[4 [2 ethyl-4 (3-methylphenyl)-1,3 thiazol-5 yl]-2 pyridyl]-4 methylbenzamide], the melting point lay within 105 to 106 °C.

In turn, `CCc1nc(-c2cccc(C)c2)c(-c2ccnc(NC(=O)c3cccc(F)c3)c2)s1` [L 39-4, N-[4 [2 ethyl-4 (3-methylphenyl)-1,3 thiazol-5 yl]-2 pyridyl]-3 fluorobenzamide] had a melting point of 101 to 102 °C.

In turn, `CCc1nc(-c2cccc(C)c2)c(-c2ccnc(NC(=O)c3ccc(F)cc3)c2)s1` [L 39-5, N-[4 [2 ethyl-4 (3-methylphenyl)-1,3 thiazol-5 yl]-2 pyridyl]-4 fluorobenzamide] showed a melting point of 110 to 111 °C.

In turn, `CCc1nc(-c2cccc(C)c2)c(-c2ccnc(NC(=O)c3cc(Cl)cc(Cl)c3)c2)s1` [L 39-6, 3,5 dichloro-N-[4 [2 ethyl-4 (3 methylphenyl)-1,3 thiazol-5 yl]-2 pyridyl]benzamide] displayed a melting point of 77 to 78 °C.

`Cc1cccc(-c2nc(C3CCN(C)CC3)sc2-c2ccnc(NC(=O)c3ccccc3)c2)c1` [L 44, N-[4 [4 (3 methylphenyl)-2 (1 methylpiperidin-4 yl)-1,3-thiazol-5 yl]-2 pyridyl]benzamide] displayed a melting point of 151 to 152 °C.
